Literature values in patent publication US20090304576A1, “DEVICE FOR DELIVERY OF ANTI-CANCER AGENTS TO TISSUE” (priority 2006, published 2009).

Conditions: diffusion in solid tissue such as brain; estimated

SMILES: O=NN(CCCl)C(=O)NCCCl [carmustine]
- maximum effective range from a source: about 5 mm
